Test in all cases: biochemical
Common to all, as to assay type: binding

Assay [1] has as its target T1, panel of 442 kinases (Homo sapiens, UniProt Q8TDR2).
T1 construct: purchased Ambit Biosciences (scanMAXX KINOMEscan)
The following applies: kinase STK35; for remaining activity at 1 µM: read-out: STK35 (% of control at 1 µM).

Assay [2] concerns the target T2, panel of 442 kinases (Homo sapiens, UniProt Q32MK0).
T2 construct: purchased Ambit Biosciences (scanMAXX KINOMEscan)
T2 sequence (Q32MK0 1-819): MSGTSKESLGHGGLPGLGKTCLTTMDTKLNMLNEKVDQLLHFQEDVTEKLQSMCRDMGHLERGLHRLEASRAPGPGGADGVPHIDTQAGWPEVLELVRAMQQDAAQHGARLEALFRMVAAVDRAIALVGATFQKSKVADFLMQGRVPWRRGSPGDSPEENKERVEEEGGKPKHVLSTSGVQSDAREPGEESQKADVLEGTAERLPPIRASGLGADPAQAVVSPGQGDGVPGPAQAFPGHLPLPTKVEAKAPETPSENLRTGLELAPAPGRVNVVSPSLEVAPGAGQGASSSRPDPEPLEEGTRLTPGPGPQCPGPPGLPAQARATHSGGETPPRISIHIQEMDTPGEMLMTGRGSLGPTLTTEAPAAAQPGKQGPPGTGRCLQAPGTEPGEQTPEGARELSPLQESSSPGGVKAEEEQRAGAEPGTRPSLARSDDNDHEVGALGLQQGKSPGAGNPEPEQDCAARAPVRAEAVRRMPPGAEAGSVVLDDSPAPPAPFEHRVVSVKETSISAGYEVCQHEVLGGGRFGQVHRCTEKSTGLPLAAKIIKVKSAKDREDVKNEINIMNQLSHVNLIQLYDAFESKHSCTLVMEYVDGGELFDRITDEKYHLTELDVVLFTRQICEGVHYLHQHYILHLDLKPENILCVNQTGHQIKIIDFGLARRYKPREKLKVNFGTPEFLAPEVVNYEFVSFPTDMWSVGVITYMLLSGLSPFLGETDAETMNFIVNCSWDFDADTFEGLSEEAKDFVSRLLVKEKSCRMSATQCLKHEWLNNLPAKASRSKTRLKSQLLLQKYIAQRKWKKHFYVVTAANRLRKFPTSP
As to conditions: kinase MLCK; for remaining activity at 1 µM: read-out: % of control at 1 µM.

Assay [3] concerns the target T3, panel of 442 kinases (Homo sapiens, UniProt Q13153).
T3 construct: purchased Ambit Biosciences (scanMAXX KINOMEscan)
As to conditions: kinase PAK1; for remaining activity at 1 µM: read-out: % of control at 1 µM.

Assay [4] addresses T4, panel of 442 kinases (Homo sapiens, UniProt Q05397).
T4 construct: purchased Ambit Biosciences (scanMAXX KINOMEscan)
As to conditions: FAK; for remaining activity at 1 µM: read-out: % of control at 1 µM.

Assay [5] concerns the target T5, panel of 442 kinases (Homo sapiens, UniProt P21709).
T5 construct: purchased Ambit Biosciences (scanMAXX KINOMEscan)
T5 sequence (P21709 26-976): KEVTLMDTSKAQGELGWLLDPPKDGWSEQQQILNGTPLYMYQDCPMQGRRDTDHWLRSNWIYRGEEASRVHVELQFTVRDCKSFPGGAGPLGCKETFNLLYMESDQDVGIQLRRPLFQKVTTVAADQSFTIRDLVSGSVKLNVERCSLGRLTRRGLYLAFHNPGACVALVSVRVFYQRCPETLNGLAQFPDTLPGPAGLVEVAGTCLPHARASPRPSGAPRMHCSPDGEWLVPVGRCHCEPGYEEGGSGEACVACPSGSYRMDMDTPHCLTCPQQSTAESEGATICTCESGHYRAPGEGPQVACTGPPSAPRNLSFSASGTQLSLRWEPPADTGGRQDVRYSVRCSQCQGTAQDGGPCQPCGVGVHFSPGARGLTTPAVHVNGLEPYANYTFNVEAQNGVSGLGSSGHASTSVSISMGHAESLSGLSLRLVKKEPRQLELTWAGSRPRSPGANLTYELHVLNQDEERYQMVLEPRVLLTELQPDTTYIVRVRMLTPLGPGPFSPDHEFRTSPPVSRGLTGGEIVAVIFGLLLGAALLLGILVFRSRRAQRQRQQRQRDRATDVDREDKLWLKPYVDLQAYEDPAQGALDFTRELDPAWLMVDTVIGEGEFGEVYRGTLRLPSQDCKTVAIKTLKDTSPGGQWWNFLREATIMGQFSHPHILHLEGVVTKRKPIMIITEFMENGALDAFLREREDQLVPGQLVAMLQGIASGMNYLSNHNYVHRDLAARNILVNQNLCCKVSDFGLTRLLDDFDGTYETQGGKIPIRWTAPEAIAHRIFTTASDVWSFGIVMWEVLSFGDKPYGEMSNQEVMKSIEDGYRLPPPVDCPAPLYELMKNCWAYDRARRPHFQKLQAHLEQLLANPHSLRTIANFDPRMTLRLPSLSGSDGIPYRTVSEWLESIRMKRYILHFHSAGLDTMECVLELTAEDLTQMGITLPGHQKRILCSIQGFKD
As to conditions: EPHA1; for remaining activity at 1 µM: read-out: % of control at 1 µM.

For assay [6], the target named is T6, panel of 442 kinases (Homo sapiens, UniProt P42685).
T6 construct: purchased Ambit Biosciences (scanMAXX KINOMEscan)
T6 sequence (P42685 whole entry): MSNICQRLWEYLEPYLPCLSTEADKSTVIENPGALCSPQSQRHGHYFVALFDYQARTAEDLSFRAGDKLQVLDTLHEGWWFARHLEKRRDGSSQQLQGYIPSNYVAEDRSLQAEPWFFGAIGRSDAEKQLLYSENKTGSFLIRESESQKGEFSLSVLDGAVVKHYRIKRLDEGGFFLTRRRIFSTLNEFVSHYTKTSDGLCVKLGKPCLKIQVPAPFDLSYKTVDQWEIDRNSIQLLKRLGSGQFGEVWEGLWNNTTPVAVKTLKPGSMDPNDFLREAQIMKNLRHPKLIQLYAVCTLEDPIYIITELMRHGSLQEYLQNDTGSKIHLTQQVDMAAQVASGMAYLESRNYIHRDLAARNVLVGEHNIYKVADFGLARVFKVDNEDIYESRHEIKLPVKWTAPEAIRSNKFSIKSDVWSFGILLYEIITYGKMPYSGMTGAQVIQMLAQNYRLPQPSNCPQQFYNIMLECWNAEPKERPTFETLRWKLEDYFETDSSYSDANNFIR
The following applies: kinase FRK; for remaining activity at 1 µM: read-out: % of control at 1 µM.

For assay [7], the system named is panel of 442 kinases.
For assay [8], the target named is T7, panel of 442 kinases (Homo sapiens, UniProt P45983).
T7 construct: purchased Ambit Biosciences (scanMAXX KINOMEscan)
T7 sequence (P45983 whole entry): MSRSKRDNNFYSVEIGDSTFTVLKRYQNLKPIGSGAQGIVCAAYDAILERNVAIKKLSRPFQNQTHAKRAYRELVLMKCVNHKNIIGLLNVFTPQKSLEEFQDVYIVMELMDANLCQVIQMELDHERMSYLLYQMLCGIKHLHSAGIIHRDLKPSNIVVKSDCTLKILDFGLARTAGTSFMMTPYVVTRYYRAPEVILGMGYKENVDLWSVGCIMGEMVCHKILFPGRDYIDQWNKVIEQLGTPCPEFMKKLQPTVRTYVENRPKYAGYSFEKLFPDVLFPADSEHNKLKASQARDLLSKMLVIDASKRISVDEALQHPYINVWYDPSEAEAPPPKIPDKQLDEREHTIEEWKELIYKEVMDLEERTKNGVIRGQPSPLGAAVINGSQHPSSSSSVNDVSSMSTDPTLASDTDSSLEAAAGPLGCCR
The following applies: kinase JNK1; for remaining activity at 1 µM: read-out: % of control at 1 µM.

In assay [9] the target is T8, panel of 442 kinases (Homo sapiens, UniProt Q13523).
T8 construct: purchased Ambit Biosciences (scanMAXX KINOMEscan)
T8 sequence (Q13523 whole entry): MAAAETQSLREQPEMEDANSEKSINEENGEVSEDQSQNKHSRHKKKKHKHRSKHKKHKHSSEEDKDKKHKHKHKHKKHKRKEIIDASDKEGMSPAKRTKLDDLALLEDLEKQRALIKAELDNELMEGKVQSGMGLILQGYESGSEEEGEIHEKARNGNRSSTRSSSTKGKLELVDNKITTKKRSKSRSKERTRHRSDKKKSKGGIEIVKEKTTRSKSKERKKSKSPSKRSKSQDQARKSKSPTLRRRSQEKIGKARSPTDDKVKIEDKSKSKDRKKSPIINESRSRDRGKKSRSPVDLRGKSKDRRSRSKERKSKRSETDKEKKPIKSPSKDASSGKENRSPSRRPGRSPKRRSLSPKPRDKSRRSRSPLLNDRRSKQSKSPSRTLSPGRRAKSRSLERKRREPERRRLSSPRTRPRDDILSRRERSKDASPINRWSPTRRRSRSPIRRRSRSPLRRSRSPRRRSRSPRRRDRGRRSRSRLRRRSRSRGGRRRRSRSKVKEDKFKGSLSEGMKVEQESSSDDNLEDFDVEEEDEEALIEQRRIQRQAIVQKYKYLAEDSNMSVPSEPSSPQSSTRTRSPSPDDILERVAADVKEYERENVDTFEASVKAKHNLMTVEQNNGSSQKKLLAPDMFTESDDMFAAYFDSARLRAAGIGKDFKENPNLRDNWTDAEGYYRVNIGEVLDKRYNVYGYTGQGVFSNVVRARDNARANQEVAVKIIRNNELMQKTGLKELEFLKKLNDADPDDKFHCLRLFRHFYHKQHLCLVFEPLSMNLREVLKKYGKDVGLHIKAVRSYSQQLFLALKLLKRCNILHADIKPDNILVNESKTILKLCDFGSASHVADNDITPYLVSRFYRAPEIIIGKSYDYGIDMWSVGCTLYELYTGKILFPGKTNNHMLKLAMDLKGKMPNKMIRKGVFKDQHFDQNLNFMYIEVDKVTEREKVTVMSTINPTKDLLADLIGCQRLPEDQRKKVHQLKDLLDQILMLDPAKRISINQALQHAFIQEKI
As to conditions: kinase PRP4; for remaining activity at 1 µM: read-out: PRP4 (% of control at 1 µM).

Where [10] appears, read: 10 µM, read-out: % of control at 10 µM.
Where [11] appears, read: EGFR(L747-E749del, A750P), 1 µM.
Setting [12] is: EGFR(L747-S752del, P753S), 1 µM.
Where [13] appears, read: kinase KIT(D816V), first of two lines so named (r206), 1 µM.

Several values for one entry are separate records, joined by “and”; a condition that tells them apart may be missing. Equal values may be shown once.

T3 sequence (Q13153 whole entry): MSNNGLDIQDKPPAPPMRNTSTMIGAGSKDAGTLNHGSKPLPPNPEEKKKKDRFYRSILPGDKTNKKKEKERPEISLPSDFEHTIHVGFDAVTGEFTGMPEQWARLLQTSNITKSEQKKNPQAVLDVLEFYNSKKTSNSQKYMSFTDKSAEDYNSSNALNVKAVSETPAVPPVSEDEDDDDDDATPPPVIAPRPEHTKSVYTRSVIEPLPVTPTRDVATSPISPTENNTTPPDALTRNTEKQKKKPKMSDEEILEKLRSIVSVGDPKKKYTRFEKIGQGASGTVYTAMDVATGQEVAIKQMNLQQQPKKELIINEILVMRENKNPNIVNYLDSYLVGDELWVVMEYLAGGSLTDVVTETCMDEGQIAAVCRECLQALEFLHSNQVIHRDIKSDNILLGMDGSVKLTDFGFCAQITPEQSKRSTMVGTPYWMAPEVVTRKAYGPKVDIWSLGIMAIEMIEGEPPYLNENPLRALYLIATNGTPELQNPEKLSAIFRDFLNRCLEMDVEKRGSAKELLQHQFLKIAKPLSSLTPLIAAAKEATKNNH
T4 sequence (Q05397 whole entry): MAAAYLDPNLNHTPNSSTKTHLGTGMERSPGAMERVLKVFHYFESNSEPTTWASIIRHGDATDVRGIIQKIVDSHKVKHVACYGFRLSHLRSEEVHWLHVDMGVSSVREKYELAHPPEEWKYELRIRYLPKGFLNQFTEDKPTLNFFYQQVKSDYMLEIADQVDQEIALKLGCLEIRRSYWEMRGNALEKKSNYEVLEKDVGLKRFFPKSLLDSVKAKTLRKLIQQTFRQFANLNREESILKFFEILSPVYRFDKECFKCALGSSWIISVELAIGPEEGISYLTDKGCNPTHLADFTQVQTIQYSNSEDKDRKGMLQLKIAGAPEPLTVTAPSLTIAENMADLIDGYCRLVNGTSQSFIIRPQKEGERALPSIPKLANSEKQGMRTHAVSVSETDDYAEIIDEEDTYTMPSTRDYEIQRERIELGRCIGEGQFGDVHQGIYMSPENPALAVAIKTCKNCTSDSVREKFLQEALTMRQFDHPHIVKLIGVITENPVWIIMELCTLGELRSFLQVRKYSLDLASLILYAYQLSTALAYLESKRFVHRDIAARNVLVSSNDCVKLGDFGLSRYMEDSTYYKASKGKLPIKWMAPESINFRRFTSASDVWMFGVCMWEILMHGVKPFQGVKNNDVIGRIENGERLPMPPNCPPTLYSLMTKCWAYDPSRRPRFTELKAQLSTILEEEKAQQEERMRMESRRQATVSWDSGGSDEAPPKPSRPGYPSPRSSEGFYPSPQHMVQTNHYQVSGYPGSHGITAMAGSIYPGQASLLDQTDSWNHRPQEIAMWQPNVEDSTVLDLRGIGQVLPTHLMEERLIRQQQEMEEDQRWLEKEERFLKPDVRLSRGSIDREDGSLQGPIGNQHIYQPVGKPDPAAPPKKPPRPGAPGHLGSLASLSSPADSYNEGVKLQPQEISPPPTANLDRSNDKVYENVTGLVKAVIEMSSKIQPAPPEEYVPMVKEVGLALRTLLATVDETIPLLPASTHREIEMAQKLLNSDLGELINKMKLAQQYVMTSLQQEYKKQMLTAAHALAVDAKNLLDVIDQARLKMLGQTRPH
T1 sequence (Q8TDR2 whole entry): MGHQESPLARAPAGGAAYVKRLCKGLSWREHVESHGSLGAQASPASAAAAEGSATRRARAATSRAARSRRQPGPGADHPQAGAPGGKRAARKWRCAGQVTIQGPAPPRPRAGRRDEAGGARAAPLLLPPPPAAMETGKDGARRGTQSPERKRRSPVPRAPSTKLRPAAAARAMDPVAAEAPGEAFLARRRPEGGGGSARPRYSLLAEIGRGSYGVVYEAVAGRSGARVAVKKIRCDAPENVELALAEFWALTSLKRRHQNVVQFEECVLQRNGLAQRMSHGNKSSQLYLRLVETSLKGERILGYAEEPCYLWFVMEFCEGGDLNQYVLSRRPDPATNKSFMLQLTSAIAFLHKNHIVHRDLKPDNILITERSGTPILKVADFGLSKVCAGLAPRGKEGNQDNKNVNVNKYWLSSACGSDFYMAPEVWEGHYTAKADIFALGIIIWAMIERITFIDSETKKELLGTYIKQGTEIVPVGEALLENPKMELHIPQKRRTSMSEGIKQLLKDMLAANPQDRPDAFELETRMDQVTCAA

For the compound `Nc1cc(C(F)(F)F)c(-c2cc(N3CCOCC3)nc(N3CCOCC3)n2)cn1` [Buparlisib], the remaining activity at 1 µM worked out at 99% in assay [1]; 100% in [2]; 100% in [3]; 100% in [4]; 90% in [5]; 100% in assay [6]. Moreover, the remaining activity at 1 µM in assay [8] is 98%; in [9], 100%. For the same compound, the remaining activity at 10 µM in assay [1] (10 µM, read-out: STK35 (% of control at 10 µM)) amounted to 98%; in assay [2] (setting [10]), 100%; in assay [3] (setting [10]) it was 96%; in assay [4] (setting [10]), 100%; in assay [5] (setting [10]), 100%; in [6] (setting [10]), 100%. In addition, the remaining activity at 10 µM amounted to 100% in assay [8] (setting [10]) and 93% in [9] (10 µM, read-out: PRP4 (% of control at 10 µM)). Further, the “% of control at 1 µM” value in assay [7] (1 μM) was 85 % of control and 100 % of control and 91 % of control and 86 % of control. Besides, the “% of control at 10 µM” value in assay [7] (10 μM) is 96 % of control and 100 % of control and 93 % of control and 88 % of control.
Take `Cn1c(=O)n(-c2ccc(C(C)(C)C#N)cc2)c2c3cc(-c4cnc5ccccc5c4)ccc3ncc21` [Dactolisib, 2-methyl-2-[4-(3-methyl-2-oxo-8-quinolin-3-yl-2,3-dihydroimidazo[4,5-c]quinolin-1-yl)-phenyl] propionitrile]: the remaining activity at 1 µM in [1] came out at 73%; in assay [2], 80%; in [3] it was 100%; in assay [4] it was 90%; in [5] it was 100%; in assay [6] it was 85%. Also, the results for the remaining activity at 1 µM in assay [8] and in [9] were 84% and 100%, respectively. In addition, the “% of control at 1 µM” value in [7] (1 μM) was 81 % of control and 100 % of control and 86 % of control and 59 % of control; in assay [7] (FLT3(ITD), 1 µM) it was 44 % of control.
Turning to `COc1ncc(-c2ccc3nccc(-c4ccnnc4)c3c2)cc1NS(=O)(=O)c1ccc(F)cc1F` [Omipalisib], the remaining activity at 1 µM in assay [1] stood at 100%; in [2] it was 100%; in [3] it was 55%; in [4], 94%; in [5], 97%; in assay [6], 98%. In addition, the remaining activity at 1 µM in [8] amounted to 100%; in assay [9], 95%. Also, the “% of control at 1 µM” value in [7] (setting [11]) was 92 % of control; in assay [7] (setting [12]), 87 % of control; in assay [7] (EGFR(L747-T751del,Sins), 1 µM), 100 % of control; in assay [7] (FLT3(ITD), 1 µM), 100 % of control; in assay [7] (setting [13]) it was 100 % of control.
In the case of `CS(=O)(=O)N1CCN(Cc2cc3nc(-c4cccc5[nH]ncc45)nc(N4CCOCC4)c3s2)CC1` [Pictilisib, 2-(1H-indazol-4-yl)-6-(4-methanesulfonyl-piperazin-1-ylmethyl)-4-morpholin-4-yl-t hieno[3,2-d]pyrimidine], the “% of control at 1 µM” value in assay [7] (1 μM) was 98 % of control and 70 % of control and 99 % of control and 77 % of control and 72 % of control.
`FC(F)c1nc2ccccc2n1-c1nc(N2CCOCC2)nc(N2CCOCC2)n1` [ZSTK474, 2-(difluoromethyl)-1-[4,6-di(4-morpholinyl)-1,3,5-triazin-2-yl]-1H-benzimidazole]: the remaining activity at 1 µM is 89% in assay [1]; 92% in assay [2]; 100% in [3]; 90% in assay [4]; 99% in assay [5]; 83% in assay [6]. Further, the remaining activity at 1 µM was 86% in assay [8] and 100% in assay [9]. The “% of control at 1 µM” value in assay [7] (setting [11]) was 89 % of control; in assay [7] (setting [12]), 100 % of control; in [7] (EGFR(L747-T751del,Sins), 1 µM), 100 % of control; in assay [7] (FLT3(ITD), 1 µM), 99 % of control; in assay [7] (setting [13]), 100 % of control.

These data come from publication PMC5564600 (Oncotarget, 2017).
